Reference: PMC8217340 (Phytotherapy research : PTR, 2021)
Like-named read-outs stand apart in the source and are kept apart here.

What was measured:
human OATP2B1 = target: T1, human OATP2B1 (Homo sapiens, UniProt O94956); assay type: cell-based; settings: 5 μM flavonolignan, 5 minutes; for substrate for OATP2B1: uptake minus wild-type CHO cells
T1 sequence (O94956 1-709): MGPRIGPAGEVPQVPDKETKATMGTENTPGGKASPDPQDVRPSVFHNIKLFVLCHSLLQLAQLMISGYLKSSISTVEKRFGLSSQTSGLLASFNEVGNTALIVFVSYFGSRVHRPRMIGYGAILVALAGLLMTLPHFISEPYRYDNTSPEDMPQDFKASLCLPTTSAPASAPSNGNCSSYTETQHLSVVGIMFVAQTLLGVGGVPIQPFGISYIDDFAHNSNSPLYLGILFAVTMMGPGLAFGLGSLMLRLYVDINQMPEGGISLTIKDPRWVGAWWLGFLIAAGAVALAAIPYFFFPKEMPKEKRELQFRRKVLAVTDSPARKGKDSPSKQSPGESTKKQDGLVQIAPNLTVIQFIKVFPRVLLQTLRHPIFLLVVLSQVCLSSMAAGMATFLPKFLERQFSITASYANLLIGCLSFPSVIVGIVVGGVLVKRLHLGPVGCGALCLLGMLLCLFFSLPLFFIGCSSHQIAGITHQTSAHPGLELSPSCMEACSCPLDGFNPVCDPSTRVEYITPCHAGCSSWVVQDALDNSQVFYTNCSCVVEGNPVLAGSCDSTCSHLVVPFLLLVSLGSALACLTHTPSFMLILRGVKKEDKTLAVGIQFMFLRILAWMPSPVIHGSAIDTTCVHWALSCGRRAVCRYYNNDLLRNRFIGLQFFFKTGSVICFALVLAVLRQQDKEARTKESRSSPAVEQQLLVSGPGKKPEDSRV

human OATP1B3 [1] = target: T2, human OATP1B3 (Homo sapiens, UniProt Q9NPD5); assay type: cell-based; settings: 5 μM flavonolignan, 5 minutes; uptake minus wild-type CHO cells
T2 sequence (Q9NPD5 1-702): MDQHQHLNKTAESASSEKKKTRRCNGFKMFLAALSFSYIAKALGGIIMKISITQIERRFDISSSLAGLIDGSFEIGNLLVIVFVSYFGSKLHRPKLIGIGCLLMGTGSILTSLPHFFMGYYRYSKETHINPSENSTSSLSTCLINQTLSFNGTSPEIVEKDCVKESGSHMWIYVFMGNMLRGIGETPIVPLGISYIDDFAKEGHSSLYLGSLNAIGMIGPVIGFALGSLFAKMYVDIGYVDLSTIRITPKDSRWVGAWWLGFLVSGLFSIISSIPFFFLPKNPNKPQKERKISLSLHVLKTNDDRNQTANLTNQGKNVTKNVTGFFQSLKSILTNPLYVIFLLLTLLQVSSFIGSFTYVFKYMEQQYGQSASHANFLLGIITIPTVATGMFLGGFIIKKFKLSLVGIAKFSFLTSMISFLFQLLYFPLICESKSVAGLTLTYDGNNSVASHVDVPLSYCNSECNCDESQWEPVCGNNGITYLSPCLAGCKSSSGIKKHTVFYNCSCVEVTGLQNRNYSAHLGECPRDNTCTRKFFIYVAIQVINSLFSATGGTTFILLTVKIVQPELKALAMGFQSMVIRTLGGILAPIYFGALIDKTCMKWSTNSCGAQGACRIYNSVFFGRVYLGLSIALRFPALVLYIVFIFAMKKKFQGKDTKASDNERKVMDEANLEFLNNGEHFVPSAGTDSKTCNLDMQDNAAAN

human OATP1B1 [2] = target: T3, human OATP1B1 (Homo sapiens, UniProt Q9Y6L6); assay type: cell-based; settings: 5 μM flavonolignan, 5 minutes; uptake minus wild-type CHO cells
T3 sequence (Q9Y6L6 1-691): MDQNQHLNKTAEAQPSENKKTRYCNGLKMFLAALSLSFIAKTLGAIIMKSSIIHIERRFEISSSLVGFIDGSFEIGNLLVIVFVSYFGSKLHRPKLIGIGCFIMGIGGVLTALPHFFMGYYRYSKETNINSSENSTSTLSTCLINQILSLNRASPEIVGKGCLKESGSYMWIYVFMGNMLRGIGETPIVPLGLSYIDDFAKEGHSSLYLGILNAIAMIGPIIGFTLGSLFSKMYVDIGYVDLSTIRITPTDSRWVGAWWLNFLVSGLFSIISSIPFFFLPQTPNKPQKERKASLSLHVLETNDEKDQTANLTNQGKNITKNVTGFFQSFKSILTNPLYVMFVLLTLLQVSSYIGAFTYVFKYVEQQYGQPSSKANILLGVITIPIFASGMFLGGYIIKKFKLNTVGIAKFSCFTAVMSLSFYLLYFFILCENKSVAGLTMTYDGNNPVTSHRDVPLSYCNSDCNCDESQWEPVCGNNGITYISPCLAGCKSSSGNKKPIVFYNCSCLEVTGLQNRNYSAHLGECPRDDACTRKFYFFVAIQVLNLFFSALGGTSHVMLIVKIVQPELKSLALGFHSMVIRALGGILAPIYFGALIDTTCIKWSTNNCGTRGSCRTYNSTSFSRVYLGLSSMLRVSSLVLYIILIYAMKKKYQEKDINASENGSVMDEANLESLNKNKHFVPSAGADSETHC

[3] = for Cmax: NASH animals, silymarin 500 mg/kg oral gavage, plasma, geometric mean (90% CI)
UGT2B7 = settings: ref Uchaipichat, 2018; cited from earlier work
human OATP1B3 [4] = target: T2, human OATP1B3; assay type: cell-based
[5] = in vivo; cited from earlier work
[6] = human, in vivo; cited from earlier work
human OATP1B1 [7] = target: T3, human OATP1B1; assay type: cell-based
[8] = read-out: average Cmax; NAFLD and HCV patients; ref Fried, 2012; Wah Kheong et al., 2017; cited from earlier work
[9] = assay type: in vivo, Sprague Dawley rats; settings: 27 hours after pitavastatin gavage
[10] = assay type: in vivo, Sprague Dawley rats

COc1cc([C@@H]2[C@H]3CO[C@@]4(O)C(=O)[C@@H]2C=C([C@H]2Oc5cc(O)cc(O)c5C(=O)[C@@H]2O)[C@@H]34)ccc1O [SD, silydianin]
substrate for OATP2B1 (human OATP2B1): substrates | substrate for OATP1B3 (human OATP1B3 [1]): substrates | substrate for OATP1B1 (human OATP1B1 [2]): substrates

silybin A-7-O-β-D-glucuronide [S7G]
Cmax [3]: 12.6 µM

COc1cc([C@@H]2Oc3c(O)cc([C@H]4Oc5cc(O)cc(O)c5C(=O)[C@@H]4O)cc3[C@H]2CO)ccc1O [SC, silychristin]
transport activity of OATP2B1 compared to SA (human OATP2B1): lower transport activity | substrate for OATP2B1 (human OATP2B1): substrates | substrate for OATP1B3 (human OATP1B3 [1]): substrates | substrate for OATP1B1 (human OATP1B1 [2]): substrates

COc1cc(C2Oc3cc([C@H]4Oc5cc(O)cc(O)c5C(=O)[C@@H]4O)ccc3OC2CO)ccc1O (stereo partly shown) [silybin]
concentrations at which inhibition of UGT2B7 occurs (UGT2B7): 0.60 to 1.5 mM

COc1cc([C@H]2Oc3ccc([C@H]4Oc5cc(O)cc(O)c5C(=O)[C@@H]4O)cc3O[C@@H]2CO)ccc1O [IA, isosilybin A]
substrate for OATP2B1 (human OATP2B1): substrates | substrate for OATP1B3 (human OATP1B3 [1]): substrates | substrate for OATP1B1 (human OATP1B1 [2]): substrates

COc1cc([C@@H]2Oc3ccc([C@H]4Oc5cc(O)cc(O)c5C(=O)[C@@H]4O)cc3O[C@H]2CO)ccc1O [IB, isosilybin B]
substrate for OATP2B1 (human OATP2B1): substrates | substrate for OATP1B3 (human OATP1B3 [1]): substrates | substrate for OATP1B1 (human OATP1B1 [2]): substrates

silymarin
leftward shift in IC50 for OATP1B3 (human OATP1B3 [4]): 1.7 fold | safety of the dose [5]: safe | adverse events [6]: no adverse events | leftward shift in IC50 for OATP1B1 (human OATP1B1 [7]): 2.8 fold

COc1cc([C@@H]2Oc3cc([C@H]4Oc5cc(O)cc(O)c5C(=O)[C@@H]4O)ccc3O[C@H]2CO)ccc1O [SB, silybin B]
substrate for OATP2B1 (human OATP2B1): substrates | substrate for OATP1B3 (human OATP1B3 [1]): substrates | substrate for OATP1B1 (human OATP1B1 [2]): substrates

COc1cc([C@H]2Oc3cc([C@H]4Oc5cc(O)cc(O)c5C(=O)[C@@H]4O)ccc3O[C@@H]2CO)ccc1O [SA, silybin A]
plasma AUC of SA relative to that of SC ([3]; oral silymarin 500 mg/kg): 110 times | substrate for OATP2B1 (human OATP2B1): substrates | substrate for OATP1B3 (human OATP1B3 [1]): substrates | Cmax [8]: 0.8 to 4.2 µM | substrate for OATP1B1 (human OATP1B1 [2]): substrates

silybin A-4”-O-β-D-glucuronide [S4G]
Cmax [3]: 12.6 µM

O=C(O)C[C@H](O)C[C@H](O)/C=C/c1c(C2CC2)nc2ccccc2c1-c1ccc(F)cc1 [Pitavastatin, Pitavastatin calcium]
liver pitavastatin content, NASH vs control groups [9]: not different | liver to plasma ratio in the NASH group [9]: decreased | silymarin effect on pitavastatin Cmax ([10]; 40-minute offset between pitavastatin and silymarin administration): no significant silymarin effect | increase of pitavastatin AUC0-27h by silymarin ([10]; NASH silymarin group vs NASH vehicle): 1.8 fold | increase of pitavastatin AUC0-27h by NASH alone ([10]; NASH vehicle compared to control vehicle): 2.9 fold | increase of pitavastatin AUC0-27h by the combination of silymarin and NASH ([10]; compared to the control vehicle group): 5.1 fold | increase of pitavastatin AUC0-27h by silymarin ([10]; control silymarin group vs control vehicle): 1.8 fold | increase of pitavastatin Cmax by NASH compared to control ([10]; in the absence of silymarin): 3.9 fold | increase of pitavastatin Cmax by NASH compared to control ([10]; in the presence of silymarin): 2.8 fold
